Consider 17 molecules from patent publication US8563738B2, “Ligands for copper-catalyzed azide-alkyne cycloaddition reactions” (The Scripps Research Institute, priority 2007, dated 2013).

Structures are written as SMILES.

The nature of data set [1]: Ligand screening by reaction calorimetry (peak reaction power). The settings on record: high reactant concentrations, 1% Cu, 4:1 DMSO:aqueous, 65° C. The source says:
Reaction calorimetry was used to evaluate the relative merits of various ligands under practical conditions of organic synthesis, e.g., involving high concentrations of azide and alkyne reagents and low loadings of catalyst. After correction for instrumental heat transfer parameters, thermograms provide a direct real-time measure of reaction rate (power output); integration gives the overall time-vs.-completion curve. […] All such measurements were made in the same 4:1 DMSO:aqueous solvent as before, but at 65° C. rather than room temperature, in order to keep the product triazole in solution at the higher concentrations used.
Calorimetry was performed in an Omnical INSIGHT® 10-channel reaction calorimeter using 40 mL glass vials. In a typical run all the reaction components but one were introduced into the vials inside an inert atmosphere glovebox, and vials were sealed with septum caps. The last reaction component to be added was placed in a Hamilton gastight syringe. The vials and syringes were then allowed to equilibrate inside the preheated instrument (65° C.) for 30 minutes. The reaction was started in all vials by depressing all of the syringes simultaneously. Two vials out of ten were charged only with solvent to obtain readings allowing for compensation for the heat of mixing. The thermograms registered in these two channels upon addition of the last component were used to construct the baseline for the other 8 channels.
Since heat is not transferred to the instrument sensor instantaneously, the thermogram registered by the instrument is dependent on the characteristics of the instrument and reaction vessel. Correction for these extraneous factors must be applied to the recorded thermograms to obtain instrument-independent data (Rosner, T.; et al. J. Am. Chem. Soc. 2001, 123, 1848-1855; Liu, J.-S.; et al. Thermochimica Acta 1994, 236, 113-122). The appropriate dynamic correction function is built into the instrument operating software. Use of vendor supplied software produces the same result as manual correction.
By the same token, catalysts such as Cu.1 that give observable, but not very strong, calorimetry signals cannot be fully analyzed by converting thermograms to completion curves, because a significant amount of the total energy output is lost below the detection threshold of the instrument. TBTA (1) falls into this category, classified as “moderate” ligands. […] However, peak power values (i.e., maximum reaction rate) provided a reproducible relative measure of relative catalytic efficiency.
Ligands were screened under the following conditions: 250 mM benzyl azide, 454 mM phenylacetylene, 2 mM CuSO4, 4 mM ligand, 25 mM sodium ascorbate. Phenylacetylene was the last component added. Initial screening was performed with at least two independent trials for each ligand. Candidates showing promising activity were then examined with at least three independent trials to obtain reliable estimations of experimental error.

Data set [2] is described as follows: Second-order rate constants of CuAAC reaction by LC-MS of quenched aliquots. The note with it: 4:1 DMSO:buffer, Tris buffer over a standard range of concentrations.
Assay in data set [3]: as above
The settings on record: for change in rate with pH: pH of the aqueous component raised from 7 to 8; for relative catalytic rate (second-order specific activity): ligand:Cu 2:1, 0.1 mM Cu, 1-2 mM substrates, 4:1 DMSO:aqueous buffer, sodium ascorbate. The procedure: The relative effectiveness of Cu-ligand complexes was evaluated on the reaction between phenylacetylene and benzyl azide in 4:1 DMSO:aqueous buffer containing sodium ascorbate as reducing agent, which has served as the standard reaction in previous mechanistic studies (Rodionov, V. O.; et al. Angew. Chem. Int. Ed. 2005, 44, 2210-2215). Ligand:Cu ratios are used herein to describe the amounts of each component added, and designate mixtures of ligands and copper ions according to those ratios for convenience. However, it must be emphasized that the active catalysts are not necessarily composed of those same ratios of ligand and metal as are placed in the reaction vessel. The equilibria that govern the composition of these catalysts are discussed below, and their study will be the subject of a separate publication.
Absolute rates were determined under relatively dilute conditions (1-2 mM in substrates), which were required to slow the reactions enough so that aliquots could be reliably taken over a substantial fraction of the completion curve. Each aliquot was immediately quenched and the amount of product formed monitored by quantitative LC-MS against an internal standard. In this way, the clean conversion to triazole was verified in each case, information that is not available by following the disappearance of azide or alkyne by infrared spectroscopy. Plots of product concentrations vs. time fitted very well to second-order kinetics over at least 70% of the reaction (FIG. 2A). […] For this reason, comparisons were made between second-order specific activities (rate constants determined at a standard Cu concentration of 0.1 mM) for catalysts composed of 2:1 mixtures of ligands and Cu(I), in the presence of excess ascorbate relative to Cu.
Reagent stock solutions were freshly prepared before use. In a typical experiment, reactions were set up in the first column of a deep-well polypropylene microtiter plate (2.5 mL well volume). 100 μL of 30% H2O2 and 100 μL of ethanol were dispensed into all other wells.
The reactions were started by the addition of the final component (typically CuSO4 solution). Aliquots of 100 μL were taken at 1-5 minute intervals from the reaction wells with a multichannel pipetman, and transferred to the subsequent columns of wells for quenching. After the desired number of aliquots have been quenched in this fashion, the contents of the plate were transferred to a standard polystyrene 96-well plate for analysis.
LC-MS analysis was performed on an Agilent 1100 (G1946D) instrument, equipped with a 35 mm Agilent ZORBAX® 3.5μ or 1.8μ SB-C18 column. The elution solvent for the detection of 1-benzyl-4-phenyl-1,2,3-triazole was 55:45 H2O:CH3CN, with 0.5% TFA. Analysis of the other triazole products required a solvent gradient (typically from 50:50 to 25:75 H2O:CH3CN, 0.5% TFA over the course of 4-5 minutes). Detection was performed in single ion mode (SIM), which typically allowed for quantitative triazole detection down to 0.1 μM. 1-benzyl-4-phenyl-1,2,3-triazole-d7 was used as internal reference for all experiments.
Equations (2) and (3) were used to find the value of k (kobs) that gives the best fit curve to the experimental data of [P] vs. time.
FIG. 2 summarizes the rate data. Note that the rate constants obtained here are really specific activities at 0.10 mM Cu catalyst concentration. Very similar results were obtained at pH 8 in the presence of 180 mM vs. 10 mM HEPES buffer.
FIG. 2B. Conditions: 1 mM BnN3, 2 mM PhCCH, 0.1 mM CuSO4, 0.2 mM ligand, 4:1 DMSO:HEPES (180 mM), 25 mM NaAsc; pH verified with meter after ascorbate addition. The dots mark observed data points; the solid line is the best second-order fit; an initial “burst” of catalytic activity was not counted in the reported rate constants. Experimental error in rate constants upon repeat measurement is <15% (usually ca. 10%), except where noted.
FIG. 2C. […]

The nature of a further data set: Solubility of ligands. The settings on record: for solubility in common organic solvents: including DMSO.

In the case of `Cc1cc(C)c(-n2ccn(-c3c(C)cc(C)cc3C)[c]2=[Cu][Cl])c(C)c1` [Ligand S1, reference compound], in data set [1], the “relative catalytic activity by calorimetry” value (from here on “relative catalytic activity”) is listed as “no detectable exothermic heat flow”.

In the case of `c1ccc2[nH]c(CN(Cc3nc4ccccc4[nH]3)Cc3nc4ccccc4[nH]3)nc2c1` [(BimH)3, Tris-(2-benzimidazolylmethyl)amine, reference compound], in data set [2], the “effect of Tris buffer on rate” value was “slowed significantly”. The “change in rate with pH” value in data set [3] is on record as “more sensitive”.

Consider `c1ccc(CN(Cc2ccccn2)Cc2ccccn2)nc1` [(Py)3, tris(pyridylmethyl)amine, reference compound], for which the “relative catalytic activity” value in data set [1] was “one of the best ligands in calorimetry screening”. Besides, the “relative catalytic rate (second-order specific activity)” value (from here on “relative catalytic rate”) in data set [3] is recorded as “slower than those observed for the “ligand-free” case”.

For `c1ccc2[nH]c(CN(Cc3nc4ccccc4[nH]3)Cc3nc4ccccc4s3)nc2c1` [(Bth)(BimH)2, N,N-bis((1H-benzimidazol-2-yl)methyl)-1-(benzothiazol-2-yl)methanamine], in data set [1], the “relative catalytic activity” value is “largely inactive”.

In the case of `O=C([O-])CCCn1c(CN(Cc2nc3ccccc3n2CCCC(=O)[O-])Cc2nc3ccccc3n2CCCC(=O)[O-])nc2ccccc21.[K+].[K+].[K+]` [(BimC3A)3], the “relative catalytic activity” value in data set [1] was “best in the class”. Also, the “relative catalytic rate” value in data set [3] was “noticeably better catalyst performance”.

As to `c1ccc2[nH]c(CN(Cc3nc4ccccc4s3)Cc3nc4ccccc4s3)nc2c1` [(Bth)2(BimH), N-((1H-benzimidazol-2-yl)methyl)-1-(benzothiazol-2-yl)-N-(benzothiazol-2-ylmethyl)methanamine], in data set [1], the “relative catalytic activity” value is “largely inactive”. The “effect of HEPES buffer on rate” value in data set [3] (180 mM HEPES) is given as “faster turnover”. Also, in data set [3], the “relative catalytic rate” value is listed as “best ligand in the series” and the “change in rate with pH” value is “very little change in rate”.

As to `O=C([O-])CCCCCn1c(CN(Cc2nc3ccccc3n2CCCCCC(=O)[O-])Cc2nc3ccccc3n2CCCCCC(=O)[O-])nc2ccccc21.[K+].[K+].[K+]` [(BimC5A)3], the “relative catalytic activity” value in data set [1] is “best in the class”. In addition, the “relative catalytic rate” value in data set [3] was “noticeably better catalyst performance”.

On to `CCOC(=O)Cn1c(CN(Cc2nc3ccccc3n2CC(=O)OCC)Cc2nc3ccccc3n2CC(=O)OCC)nc2ccccc21` [(BimC1E)3, Triethyl 2,2′,2″-(2,2′,2″-nitrilotris(methylene)tris(1H-benzimidazole-2,1-diyl)) triethanoate], for which the “relative catalytic rate” value in data set [3] is given as “performing as well as the parent structure (BimH)3”.

On to `O=S(=O)(O)c1ccc2[nH]c(CN(Cc3nc4cc(S(=O)(=O)O)ccc4[nH]3)Cc3nc4cc(S(=O)(=O)O)ccc4[nH]3)nc2c1` [(BimH/S)3, reference compound], for which the “relative catalytic rate” value in data set [3] was “strong rate acceleration through a wide pH range”.

As to `CCOC(=O)CCCCn1c(CN(Cc2nc3ccccc3n2CCCCC(=O)OCC)Cc2nc3ccccc3n2CCCCC(=O)OCC)nc2ccccc21` [(BimC4E)3, Triethyl 5,5′,5″-(2,2′,2″-nitrilotris(methylene)tris(1H-benzimidazole-2,1-diyl))tripentanoate], in data set [3], the “relative catalytic rate” value is recorded as “just as active as its hydrolyzed (carboxylate) analog”.

As for `CC(C)(C)OC(=O)Cn1c(CN(Cc2nc3ccccc3n2CC(=O)OC(C)(C)C)Cc2nc3ccccc3n2CC(=O)OC(C)(C)C)nc2ccccc21` [(BimC1E′)3], in data set [3], the “relative catalytic rate” value is “performing as well as the parent structure (BimH)3”.

In the case of `Cn1c(CN(Cc2nc3ccccc3n2C)Cc2nc3ccccc3n2C)nc2ccccc21` [(BimC1H)3], the “solubility in common organic solvents” value in “Solubility of ligands” is listed as “unusually low solubility”. Moreover, the “relative catalytic rate” value in data set [3] is given as “performing as well as the parent structure (BimH)3”.

With `O=C([O-])Cn1c(CN(Cc2nc3ccccc3n2CC(=O)[O-])Cc2nc3ccccc3n2CC(=O)[O-])nc2ccccc21.[K+].[K+].[K+]` [(BimC1A)3], the “water solubility” value in the data set “Solubility of ligands” (water) is “water-soluble”. Moreover, the “relative catalytic rate” value in data set [3] is “one of the least effective catalysts in the series”.

In the case of `Cn1ccn(-c2cccc(-n3ccn(C)[c]3=[Cu][Cl])n2)[c]1=[Cu][Cl]` [Ligand S3, reference compound], in data set [1], the “relative catalytic activity” value is “in the range of TBTA (1)”.

As for `c1ccc2[nH]c(CNCc3nc4ccccc4[nH]3)nc2c1` [H(BimH)2, Bis-(2-benzimidazolylmethyl)amine, reference compound], the “relative catalytic rate” value in data set [3] is “slower than those observed for the “ligand-free” case”.

Regarding `O=C([O-])CCCCn1c(CN(Cc2nc3ccccc3n2CCCCC(=O)[O-])Cc2nc3ccccc3n2CCCCC(=O)[O-])nc2ccccc21.[K+].[K+].[K+]` [(BimC4A)3, Potassium 5,5′,5″-(2,2′,2″-nitrilotris(methylene)tris(1H-benzimidazole-2,1-diyl))tripentanoate], the “relative catalytic activity” value in data set [1] is “best in the class”. Besides, the results for the “relative catalytic rate” value in data set [3] and in data set [3] (listed as (BimC4A)) were “noticeably better catalyst performance” and “strong rate acceleration through a wide pH range”, respectively.

Take `c1ccc2sc(CN(Cc3nc4ccccc4s3)Cc3nc4ccccc4s3)nc2c1` [(Bth)3, Tris-(2-benzothiazolylmethyl)amine]: the “relative catalytic activity” value in data set [1] is “largely inactive”. The “solubility in common organic solvents” value in the data set “Solubility of ligands” is listed as “unusually low solubility”. Moreover, the “change in rate with pH” value in data set [3] was “more sensitive”.
